Measurements published in EP2902035B1, “Cell-permeable peptide inhibitors of the JNK signal transduction pathway for use in the treatment of inflammatory eye diseases” (Xigen Inflammation Ltd., priority 2010, dated 2012).

Key:
[1] = tested on: c-Jun phosphorylation (JNK pathway); test: Western-Blot analysis of c-Jun phosphorylation in RPE/choroid in EIU; format: in vivo, Lewis rats; details: for relative band intensity for phospho c-Jun in comparison to tubulin (densitometry): EIU
Protocol: Retinas and RPE/choroid/sclera complexes were carefully dissected out on enucleated eyes, snap frozen and stored at -80°C until being used for RT-PCR and Western-Blot analyses.
(§1) Retinas and RPE/choroid/sclera complexes were also collected at 24 hours to analyze iNOS mRNA levels by RT-PCR and c-Jun phosphorylation state by Western-Blot. Tissues were collected only from eyes treated by IV (intravenous) injection of vehicle, IV injection of the JNK-inhibitor (poly-)peptide of SEQ ID NO: 11, IVT (intravitreal) injection of vehicle and IVT injection of the JNK-inhibitor (poly-)peptide of SEQ ID NO: 11 (n=2 eyes per condition collected from separate rats). Eyes were selected so that their EIU clinical score was representative of the mean of the experimental group they belong to, i.e 3 for eyes treated by IV and IVT injection of vehicle and 2 for eyes treated by IV or IVT injection of the JNK-inhibitor (poly-)peptide of SEQ ID NO: 11.
RPE/choroid/sclera complexes and neuroretinas (2 per experimental group) were snap frozen immediately after dissection and stored at -80°C until use. Tissues were homogenized in 500 µL of lysis buffer (MOPS SDS Running Buffer, Invitrogen, Cergy-Pontoise, France) supplemented with protease inhibitor cocktail (Roche Diagnostics, Meylan, France) (one tablet for 50 mL). After addition of LDS Sample Buffer (Invitrogen) and heating for 5 min at 100°C, equal amounts of proteins were subjected to electrophoresis in a NuPAGE 4-12% Bis-Tris gel (Invitrogen) using MOPS SDS Running Buffer. The bands obtained were then electrotransferred onto nitrocellulose membranes (Schleicher & Schuell BioScience, Dassel, Germany).
Western-blot analyses were carried out to analyze the effect of the JNK-inhibitor (poly-)peptide of SEQ ID NO: 11 on the three mitogen-activated protein kinase (MAPK) pathways. To analyze the JNK pathway, blots were sequentially incubated with a rabbit Phospho-c-Jun (Ser63) primary antibody (or Phospho-c-Jun (Ser73) antibody) and an anti-rabbit IgG HRP-linked secondary antibody according to the manufacturer's instruction (PhosphoPlus c-Jun (Ser63) II and c-Jun (Ser73) antibody kit (9260) purchased from Cell Signaling Technology (Ozyme, St Quentin Yvelines, France)). Bands were visualized using the ECL Western Blotting Detection Reagents Kit (Amersham Biosciences, Orsay, France). […] The relative band intensity for phospho c-Jun (Ser 63 or Ser73) was calculated in comparison to that for -tubulin after densitometry analysis (ImageJ software).

healthy eyes = tested on: healthy eyes; set-up: species or system Lewis rats; details: rat, in vivo
Protocol: For immunohistochemistry, eyeballs were collected and fixed for 1h at room temperature in phosphate buffered saline (PBS) containing 4% paraformaldehyde before being rinsed overnight in PBS. The next day, samples were embedded and frozen in optimal cutting-temperature (OCT) compound (Tissue-Tek®, Sakura Finetek, Zoeterwoude, Netherland) and stored at -80°C. Frozen antero-posterior sections of eyes (10 µm thick) were performed at the optic nerve level using a cryostat (Leica CM 3050S, Rueil-Malmaison, France) and mounted on super-frost slides for immunohistochemical analysis.
A second set of experiment was designed to evaluate the anti-inflammatory effect of the JNK-inhibitor (poly-)peptide of SEQ ID NO: 11 at the cellular and tissue level as well as the biodistribution of this molecule 24 hours after administration. Rats were randomized into 11 experimental groups. 6 groups of rats with uveitis: untreated uveitic rats, rats injected intravenously with NaCl or the JNK-inhibitor (poly-)peptide of SEQ ID NO: 11 and rats injected intravitreously with the vehicle, the JNK-inhibitor (poly-)peptide of SEQ ID NO: 11 or dexamethasone. The 5 additional groups without uveitis were: untreated healthy rats, rats treated by NaCl IV or the JNK-inhibitor (poly-)peptide of SEQ ID NO: 11 IV and rats injected IVT with NaCl or the JNK-inhibitor (poly-)peptide of SEQ ID NO: 11. […]

iNOS mRNA = test: iNOS expression in ocular tissues by semi-quantitative PCR in EIU; format: in vivo, Lewis rats; details: retinas
Protocol: as §1
Two eyes per group were used for this analysis. Immediately after dissection, retinas extracted from each eye were separately snap frozen and stored at -80°C until use. Total RNA was extracted from tissues (RNeasy minikit, Qiagen, Courtaboeuf, France) according to the manufacturer's instructions. […] PCR fragments (162 bp for GAPDH and 657 bp for iNOS) were analyzed by 2.5% agarose gel electrophoresis and visualized by ethidium bromide staining under UV light. The relative band intensity for iNOS was calculated in comparison to that for GAPDH after densitometry analysis (ImageJ software).

Structure (SMILES): CC(C)C[C@@H](NC(=O)[C@@H](Cc1ccccc1)NC(=O)[C@H]1CCCN1C(=O)[C@@H](CCC(N)=O)NC(=O)[C@H](NC(=O)[C@H]1CCCN1C(=O)[C@@H](CCCNC(=N)N)NC(=O)[C@@H](CO)NC(=O)[C@@H](CCC(N)=O)NC(=O)[C@H](N)CC(=O)O)C(C)C)C(=O)N[C@H](CC(N)=O)C(=O)N[C@H](CC(C)C)C(=O)N[C@@H](C(=O)N[C@@H](C(=O)N1CCC[C@@H]1C(=O)N[C@H](CCCNC(=N)N)C(=O)N[C@H](CCCCN)C(=O)N1CCC[C@@H]1C(=O)N[C@H](CCCNC(=N)N)C(=O)N1CCC[C@@H]1C(=O)N1CCC[C@@H]1C(=O)N[C@H](CCCNC(=N)N)C(=O)N[C@H](CCCNC(=N)N)C(=O)N[C@H](CCCNC(=N)N)C(=O)N[C@H](CCC(N)=O)C(=O)N[C@H](CCCNC(=N)N)C(=O)N[C@H](CCCNC(=N)N)C(=O)N[C@H](CCCCN)C(=O)N[C@H](CCCCN)C(=O)N[C@H](CCCNC(=N)N)C(=O)NCC(=O)O)[C@H](C)O)[C@H](C)O [SEQ ID NO: 11]
- Phosphorylation of c-Jun on Ser63 and Ser73 residues ([1]; RPE/ choroid extracts, 24 hours after intravenous or intravitreous injection): reduced
- relative band intensity for phospho c-Jun in comparison to tubulin (densitometry) ([1]; RPE/ choroid, 24 hours after IV (20 µg/kg)): 0.28 ± 0.01
- relative band intensity for phospho c-Jun in comparison to tubulin (densitometry) ([1]; RPE/ choroid, 24 hours after IVT (0.2 µg/injection)): 0.35 ± 0.08
- decrease in c-Jun phosphorylation ([1]; RPE/ choroid, after IV or IVT administration, versus vehicle): approximately 3 fold
- inflammatory cell infiltration in healthy eyes (healthy eyes): No inflammatory cell infiltration
- Levels of iNOS mRNA (relative band intensity in comparison to GAPDH) (iNOS mRNA; 24 hours after IV): 0.40 ± 0.11
- Levels of iNOS mRNA (relative band intensity in comparison to GAPDH) (iNOS mRNA; 24 hours after IVT injection): 0.27 ± 0.09
